Results: US12644099B2, “Methods for making T cell compositions” (2seventy bio, Inc., priority 2014, dated 2026)
Entries after “also recorded” stand apart in the source; their conditions may differ.

Experiments:
[1] = test system: multiple myeloma tumors (RPMI-8226); test: Anti-tumor activity of cultured anti-BCMA CAR T cells in sub cutaneous multiple myeloma tumor model; format: in vivo, mice; details: 100 mm^3 sub cutaneous RPMI-8226 tumors; 1×10^6 CAR-positive cells infused
Description: Anti-BCMA CAR T cells treated with MK-2206, TCN, or ZSTK474 as described in Example 3 were tested to evaluate whether increased CD62L expression was associated with increased anti-tumor activity. […] Animals with 100 mm^3 sub cutaneous multiple myeloma tumors (RPMI-8226) were infused with equivalent CAR T cell doses (1×10^6 CAR-positive cells).

anti-BCMA CAR T cells = test: CD62L expression on anti-BCMA CAR T cells by flow cytometry at the end of culture with inhibitor; format: cell-based; details: ten days of culture with IL-2 and optimized dose of inhibitor; three normal donors
Description: CAR T cells were cultured with either MK-2206 or triciribine phosphate—TCN (AKT inhibitors) or ZSTK474 (PI3K inhibitor). CAR T cells specific for B cell maturation antigen (BCMA) were used in these set of experiments. CAR T cell cultures were performed using a system directly scalable to large clinical manufacturing processes. […] 2×10^8 transducing units of lentivirus encoding anti-BCMA CARs were added one day after culture initiation. […] At the end of culture, the anti-BCMA CAR T cells were interrogated for phenotype. Expression of CD62L on anti-BCMA CAR T cells was assessed by flow cytometry at the end of culture. Anti-BCMA CAR T cells were specifically identified using recombinant human BCMA-IgG Fc conjugated to PE. CD62L expression was determined with a co-stain using an antibody specific to CD62L. […] (FIG. 3).

T cells [2] = test: CD62L expression on T cells treated with MK-2206; format: cell-based
Description: The purpose of this experiment was to determine the effect of Akt inhibitors on T cell markers for T cell potency. The impact of MK-2206 (Selleckchem) on T cell potency was assessed by measuring CD62L expression in the T cell cultures manufactured in Example 1. Mouse models have shown that CD62L expression identifies potent T cells; T cells with greater anti-tumor efficacy after adoptive transfer. […] FIG. 2. A pairwise T test was performed on all day seven cultures (each concentration of MK-2206 was compared to 0 μM MK-2206: *p<0.05, **p<0.01).

T cells [3] = test: T cell proliferation (CellTrace Violet dilution, flow cytometry) of PBMC-derived T cells cultured with AKT inhibitor; format: cell-based
Description: The purpose of this experiment was to determine the effect of Akt inhibitors on T cell proliferation. The impact of MK-2206 (Selleckchem) on T cell proliferation was assessed by measuring T cell division. Peripheral blood mononuclear cells (PBMC) are a heterogeneous cellular population containing T cells. PBMC were harvested from normal donors and labeled with a fluorescent dye (CellTrace® Violet, Molecular Probes), whose intensity is progressively diluted by a factor of two with each cell division. The labeled PBMCs were used as a source of cells for T cell expansion. […] The impact of MK-2206 on cell division was assayed by evaluating CellTrace Violet dilution with flow cytometry after the addition of 0.025 μM, 0.074 μM, 0.222 μM, 0.67 μM, or 2.0 μM, MK-2206 to the T cultures at day 0. […] A pairwise t test was performed on all day seven cultures; (each concentration of MK-2206 was compared to 0 μM MK-2206: the cultures were not statistically different at the p≤0.05 level).

Daudi tumor = test: Anti-tumor activity of cultured anti-BCMA CAR T cells in aggressive Daudi tumor model; format: in vivo
Source text: Daudi tumor cells express a low level of BCMA protein and can be effectively treated using anti-BCMA CAR T cells.

RPMI-8226 = test: Persistence of anti-BCMA CAR T cells: RPMI-8226 tumor rechallenge; format: in vivo, mice; details: rechallenged 13 days later with RPMI-8226 on the opposite flank after complete regression
Description: Persistence of anti-BCMA CAR T cells was evaluated by re-challenging tumors in mice that had complete regression.

SMILES | anti-tumor activity of anti-BCMA CAR T cells cultured with the agent [1] | CD62L expression on anti-BCMA CAR T cells compared to cultures with IL-2 alone (anti-BCMA CAR T cells) | CD62L expression on T cells compared to no treatment control (T cells [2]; seven days of culture in the presence of IL-2, all concentrations tested) | CD62L expression on T cells compared to no treatment control (T cells [2]; three days of culture with MK-2206) | T cell division / proliferation compared to vehicle or non-treated controls (T cells [3]; seven days of culture, 0.025-2.0 μM MK-2206 with IL-2, pairwise t test p≤0.05) | T cell division / proliferation compared to no treatment control (T cells [3]; three days of culture, 0.025-2.0 μM MK-2206 with IL-2, CD3 and CD28 antibodies) | anti-tumor activity (Daudi tumor progression) of anti-BCMA CAR T cells cultured with the agent (Daudi tumor) | tumor outgrowth / engraftment after rechallenge in animals treated with anti-BCMA CAR T cells cultured with the agent (RPMI-8226)
CN1N=C(N)c2cn([C@@H]3O[C@H](COP(=O)(O)O)[C@@H](O)[C@H]3O)c3ncnc1c23 [TCN, triciribine phosphate] | did not show an anti-tumor response; also recorded: completely abolished any anti-tumor responses | not | – | – | – | – | – | –
NC1(c2ccc(-c3nc4ccn5c(=O)[nH]nc5c4cc3-c3ccccc3)cc2)CCC1 [MK-2206] | – | significantly higher CD62L expression | significantly increases CD62L expression at all concentrations; also recorded: significant higher levels of CD62L expression | not substantially different | no statistically significant differences in T cell division; also recorded: not substantially different | did not substantially decrease T cell division; also recorded: only slightly decreased | complete tumor regression | –
FC(F)c1nc2ccccc2n1-c1nc(N2CCOCC2)nc(N2CCOCC2)n1 [ZSTK474] | – | significantly higher CD62L expression | – | – | – | – | complete tumor regression | none of the animals treated with ZSTK474-cultured anti-BCMA CAR T cells had any evidence of tumor engraftment
